Assay results as given in paper PMC10382589, “In vitro and in vivo antiplasmodial evaluation of sugar-modified nucleoside analogues” (Scientific Reports, 2023).
“Also recorded” adds a separate entry of the source. Like-named read-outs stand apart in the source and are kept apart here.

Key:
[1] = test system: Mitochondrial membrane potential of the malaria parasites; experiment: JC-1 mitochondrial membrane potential assay; assay type: cell-based, Plasmodium falciparum; details: parasites treated with IC50 concentration for 3 h; untreated control 7.04 ± 1.30
Source text: Mitochondrial membrane potential is a marker of mitochondria’s functional status. Modification in mitochondrial membrane potential leading to mitochondrial dysfunction triggers cell death[25],[26]. Mitochondrial dysfunction was detected by using membrane permeant JC-1 dye. JC-1 is a cationic probe, due to electronegative environment inside the functionally active mitochondria with high Δψm, it aggregates in energised mitochondria and gives red color fluorescence at 590 nm, but in case of low Δψm (depolarized state), JC-1 remain in monomeric form and gives green color fluorescence at […]. Decreased ratio of red/green fluorescence intensity of compound treated sample as compared to untreated control indicates depolarized mitochondrial membrane[27],[28]. The damage to the parasite's mitochondria after treatment with compounds 7, 16, 17, 18 and 1 was measured according to the method reported previously. Because of lipophilic nature of the JC-1, it is cell permeable and emits a green signal (525 nm) in the cytoplasm, but the high transmembrane potential of functional mitochondria causes it to aggregate and emit a red signal (590 nm). […]. Mitochondrial membrane potential of the malaria parasites was determined by using MitoProbe™ JC-1 assay as described previously. In brief, trophozoite stage parasites (10–12% parasitemia) were treated with IC50 concentration of compounds 7, 16, 17, 18 and 1 for 3 h at 37 °C in the CO2 incubator. Samples were washed with 1 × PBS by centrifugation at 500 × g for 2 min at RT. Freshly prepared JC-1 dye was added to each sample with working concentration of 5 µg/mL. Incubation was done for 30 min at 37 °C in a CO2 incubator. Cells were washed twice with 1 × PBS. Spectrofluorometer was used to observe mitochondrial membrane potential by measuring fluoroscence intensities from the parasite lysate at wavelength of excitation (520 nm) and emission (590 nm) respectively. In vivo cell imaging was done with the help of Olympus fluoview 3000 confocal microscopy. Live cell imaging was observed under a 100X objective (oil immersion) and band pass filter at 355–460 nm. Experiments were repeated thrice and only representative figures are shown (Fig. 6).

[2] = test system: Pf3D7 chloroquine-sensitive strain; experiment: SYBR green I based fluorescence growth inhibition assay, Pf3D7; assay type: cell-based, Plasmodium falciparum; details: for IC50 / inhibition at 1 µM: Plasmodium falciparum; for IC50: read-out: IC50 (µM) against Pf3D7; for growth inhibition against Pf3D7 (in words): screen at 1 µM and 10 µM, vs untreated control (Fig. S1); for inhibition at 1 µM: asynchronous culture, one intraerythrocytic cycle (Fig. S1), read-out: inhibition against Pf3D7 at 1 µM
Description: Growth of one intraerythrocytic cycle of Pf was monitored after treated with compounds whereas untreated parasites were considered as control.
(§1) The percent growth inhibition of the parasites was evaluated by SYBR Green assay.
(§2) Pf3D7 and PfRKL-9 were cultured by following procedure reported by Trager and Jensen[33]. […] In order to examine the morphological changes in the parasite, a blood film must be prepared. A thin blood film was air-dried, fixed with methanol, and allowed to dry before staining. […] Light microscopy analysis was carried out to evaluate the inhibitory effect of compounds at different concentrations against Pf3D7 and PfRKL-9.
SYBR green I based fluorescence assay was performed to measure the growth inhibition effect of the 26 compounds and further dose dependent assay against Pf3D7, and PfRKL-9 (Indian field strain, source- NIMR, New Delhi, India) was carried out at different concentrations. […] Parasitized erythrocytes were treated with different concentrations of compounds ranging from 1 µM to 10 µM, whereas DMSO worked as a control. Triplicate wells of parasitized erythrocytes treated with compounds were seeded in 96 well microtiter plate following incubation at 37 °C for one cycle of parasite growth. […] Growth inhibition (%) was calculated as follows: % Inhibition = [1 − % Parasitemia (Treatment)/% Parasitemia (Control)] *100. Data were expressed as mean ± SD.

[3] = test system: chloroquine resistant strain PfRKL-9; experiment: SYBR green I based fluorescence growth inhibition assay, PfRKL-9; assay type: cell-based; details: Plasmodium falciparum, synchronized late trophozoite parasites, triplicate, mean ± SD, read-out: IC50 (µM) against PfRKL-9
Description: as §1, §2
SYBR green I based fluorescence assay was performed to measure the growth inhibition effect of the 26 compounds and further dose dependent assay against Pf3D7, and PfRKL-9 (Indian field strain, source- NIMR, New Delhi, India) was carried out at different concentrations. In brief, Pf3D7 and PfRKL-9 parasitized erythrocytes (trophozoite stage with 1% parasitemia) were diluted with noninfected erythrocytes at a constant 2% hematocrit in culture medium. Parasitized erythrocytes were treated with different concentrations of compounds ranging from 1 µM to 10 µM, whereas DMSO worked as a control. Triplicate wells of parasitized erythrocytes treated with compounds were seeded in 96 well microtiter plate following incubation at 37 °C for one cycle of parasite growth. […] Growth inhibition (%) was calculated as follows: % Inhibition = [1 − % Parasitemia (Treatment)/% Parasitemia (Control)] *100. Data were expressed as mean ± SD.

[4] = test system: embryonic kidney cell lines, HEK-293; details: HEK-293 cells, MTT, 48 h incubation
Description: Cytotoxicity against human embryonic kidney cell line (ATCC) was determined using MTT dye[35]. In order to measuring the cytotoxicity of the compounds we used MTT dye to detect live/dead cells. […] cells were stored at 37 °C, 5% CO2 in […] sterile culture flasks (Corning) in complete Dulbecco's Modified Eagle Medium (DMEM) culture medium (a) supplemented with 5% Fetal Bovine Serum (FBS), gentamicin ([…]), with changing the medium thrice a week. The monolayers were washed, counted, diluted in complete medium, distributed in 96-well microtiter plates (5000 cells/well), followed by incubation for another 24 h at 37 °C. The test compounds and DMSO were added in triplicate. After a 48 h incubation at 37 °C, the supernatant was removed and 100 µL of MTT solution in complete DMEM was added to each well, followed by 2 h incubation at 37 °C. The culture plates were read in a spectrophotometer (Tecan infinite M200, nanoquant, UK) with a 490 nm filter, and the cytotoxic concentrations were determined based on a dose response curve.

human RBCs = experiment: Hemolytic activity on human RBCs; assay type: cell-based; details: 0.5-20 µM, 10% (v/v) RBC suspension, 1 h, absorbance at 415 nm
Description: Effect of compounds on human RBCs was checked with the help of spectrophotometry by measuring the lysis of human red blood cells (hRBCs). Compounds were tested at 0.5, 1, 5, 10 and 20 μM concentrations with 10% (v/v) RBCs suspension for 1 h and observed the percentage of RBCs lysis by compounds 7, 16, 17, 18 and 1.
Human RBCs were from Rotary Blood Bank, Tughlakabad Institutional Area, New Delhi, India. Effect of compounds on RBCs was checked by hemolytic assay. In brief, RBCs suspension with 10% (v/v) washed with 1 × Phosphate-buffered saline (PBS) (pH 7.4) and again resuspended in 1 × PBS. RBCs suspension was incubated with compounds 7, 16, 17, 18 and 1 at different concentrations (0.5, 1, 5, 10 and 20 μM) for 1 h at 37 °C. Samples were centrifuged and supernatant was taken for absorbance at 415 nm. Triton X-100 with 1% (v/v) was used as a positive control. Experiment was done in triplicate.

[5] = chloroquine-sensitive strain, synchronized late trophozoite parasites, SYBR Green, triplicate, mean ± SD

Structure (SMILES)	growth inhibition against Pf3D7 (in words) [2]	inhibition at 1 µM [2] [%]	other results
Cc1cn([C@@H]2O[C@H](CN3C[C@@H](COC(c4ccccc4)(c4ccccc4)c4ccccc4)O[C@@H](n4ccc(=O)[nH]c4=O)C3)[C@H]3OC(C)(C)O[C@H]32)c(=O)[nH]c1=O [Compound 1]	significant growth inhibition in a dose dependent manner; also recorded: good/excellent inhibitory effect		JC-1 red/green ratio [1]: 5.69 ± 0.70; IC50 [2, 5]: 1.31 ± 1.1 µM; IC50 [3]: 1.83 ± 0.7 µM; Cell survival (%) at 500 µM [4]: 45%; lysis of human RBCs (in words) (human RBCs): no significant lysis
COc1ccc(C(OC[C@@H]2CN(C[C@H]3O[C@@H](n4cc(C)c(=O)[nH]c4=O)C[C@@H]3O)C[C@H](n3cc(C)c(=O)[nH]c3=O)O2)(c2ccccc2)c2ccc(OC)cc2)cc1 [Compound 3]	remarkable actvity; also recorded: good/excellent inhibitory effect		IC50 [2, 5]: 1.19 ± 1.1 µM; IC50 [3]: 4.5 ± 2.5 µM; lysis of human RBCs (in words) (human RBCs): showed cytotoxicity towards human RBCs; also recorded: showed toxicity
Cc1cn([C@@H]2O[C@H](CN3C[C@@H](CN4C[C@@H](COC(c5ccccc5)(c5ccccc5)c5ccccc5)O[C@@H](n5cc(C)c(=O)[nH]c5=O)C4)O[C@@H](n4ccc(=O)[nH]c4=O)C3)[C@H]3OC(C)(C)O[C@H]32)c(=O)[nH]c1=O [Compound 4]	good/excellent inhibitory effect		
Nc1ncnc2c1ncn2[C@@H]1O[C@H](CN2C[C@@H](CO)O[C@@H](n3cnc4c(=O)[nH]cnc43)C2)[C@@H](O)[C@H]1O [Compound 5]	remarkable actvity		IC50 [2, 5]: 1.34 ± 2.1 µM; IC50 [3]: 6.23 ± 1.5 µM; lysis of human RBCs (in words) (human RBCs): showed cytotoxicity towards human RBCs; also recorded: showed toxicity
CC1(C)O[C@@H]2[C@H](O1)[C@H](CS[C@@H]1O[C@H](CO)[C@@H](O)[C@H](O)[C@H]1O)O[C@H]2n1cnc2c(NC(c3ccccc3)(c3ccccc3)c3ccccc3)ncnc21 [Compound 8, 1-[2’,3’-O-Isopropylidene-5’-S-(β-D-glucopyranosyl)-5’-thio-α-L-lyxofuranosyl]-N-trityl-adenine]	did not significantly affect the antimalarial activity		
CC(=O)OC[C@H]1O[C@@H](SC[C@@H]2O[C@@H](n3cnc4c(N)ncnc43)[C@H](O)[C@@H]2O)[C@H](OC(C)=O)[C@@H](OC(C)=O)[C@@H]1OC(C)=O [Compound 9, 1-[5’-S-(2,3,4,6-Tetra-O-acetyl-β-D-glucopyranosyl)-5’-thio-α-L-lyxofuranosyl]-adenine]	significant decrease in growth inhibitiory effect		
CCCSC[C@@H]1[C@@H](O[Si](C)(C)C(C)(C)C)[C@H](n2ccc(=O)[nH]c2=O)O[C@@H]1CO[Si](C)(C)C(C)(C)C [Compound 10]		5 to 25	
CC(C)(C)[Si](C)(C)OC[C@H]1O[C@@H](n2ccc(=O)[nH]c2=O)[C@H](O[Si](C)(C)C(C)(C)C)[C@H]1CSCc1ccc2ccccc2c1 [Compound 11, 1-[3’-Deoxy-3’-C-(2-naphtyl)methylsulfanylmethyl-2’,5’-di-O-(tert-butyldimethylsilyl)-β-D-xylofuranosyl]-uracil]		5 to 25	
COC(=O)[C@H](CSC[C@@H]1[C@@H](O[Si](C)(C)C(C)(C)C)[C@H](n2ccc(=O)[nH]c2=O)O[C@@H]1CO[Si](C)(C)C(C)(C)C)NC(=O)OCC1c2ccccc2-c2ccccc21 [Compound 12, 1-[3’-Deoxy-3’-C-(N-Fmoc-cysteinemethyl ester)thiylmethyl-2’,5’-di-O-(tert-butyldimethylsilyl)-β-D-xylofuranosyl]-uracil]	good/excellent inhibitory effect		
CC(=O)OC[C@H]1O[C@@H](SC[C@@H]2[C@@H](O[Si](C)(C)C(C)(C)C)[C@H](n3ccc(=O)[nH]c3=O)O[C@@H]2CO[Si](C)(C)C(C)(C)C)[C@@H](OC(C)=O)[C@@H](OC(C)=O)[C@@H]1OC(C)=O [Compound 15, 1-[3’-Deoxy-3’-C-(-2,3,4,6-tetra-O-acetyl-β-D-mannopyranosyl-sulfanylmethyl)-2’,5’-di-O-(tert-butyldimethylsilyl)-β-D-xylofuranosyl]-uracil]	more moderate growth inhibitory effect	~50	
CCCCCCCCCCSC[C@@H]1[C@@H](O[Si](C)(C)C(C)(C)C)[C@H](n2cc(C)c(=O)[nH]c2=O)O[C@@H]1CO[Si](C)(C)C(C)(C)C [Compound 19]		5 to 25	
CCCCSC[C@H]1[C@@H]2O[Si](C(C)C)(C(C)C)O[Si](C(C)C)(C(C)C)OC[C@H]2O[C@H]1n1ccc(=O)[nH]c1=O [Compound 20, 2’-Deoxy-2’-C-butylsulfanylmethyl-3’,5’-O-(1,1,3,3-tetraisopropyldisiloxane-1,3-diyl)-β-D-arabinofuranosyl-uracil]	good/excellent inhibitory effect		
CCN(CC)CCCC(C)Nc1ccnc2cc(Cl)ccc12 (stereo not shown) [chloroquine, reference compound]			IC50 [2]: 0.025 µM
